Measured values published in ChEMBL document CHEMBL1201862, “PubChem BioAssay data set” (2004).
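Five concentrations, 48 hours, 96-well plates. The concentration for 50% growth inhibition is given as GI50.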 Active and inactive are the calls of the source. Cut-off read from the data, not from the text of the source: active = GI50 up to about 1.1 µM and inactive = higher.

What was measured:
Assay in all cases: growth of human tumour cells (NCI), 48 h
SF-268 = system: SF-268
SK-OV-3 = system: SK-OV-3
HL-60 = system: HL-60
T47D = system: T47D
SR = system: SR
Hs-578T = system: Hs-578T
CAKI-1 = system: CAKI-1
SK-MEL-2 = system: SK-MEL-2
IGROV-1 = system: IGROV-1
SF-295 = system: SF-295
786-0 = system: 786-0
MCF7 = system: MCF7
U-251 = system: U-251
UACC-62 = system: UACC-62
UO-31 = system: UO-31
K562 = system: K562
SW-620 = system: SW-620
ACHN = system: ACHN
NCI-H23 = system: NCI-H23
NCI-H226 = system: NCI-H226
SN12C = system: SN12C
RXF 393 = system: RXF 393
MDA-MB-231 = system: MDA-MB-231
Malme-3M = system: Malme-3M
PC-3 = system: PC-3
CCRF-CEM = system: CCRF-CEM
OVCAR-8 = system: OVCAR-8
HT-29 = system: HT-29
BT-549 = system: BT-549
M14 = system: M14
HOP-62 = system: HOP-62
TK-10 = system: TK-10
SNB-19 = system: SNB-19
NCI-H522 = system: NCI-H522
HCT-15 = system: HCT-15
SF-539 = system: SF-539
LOX IMVI = system: LOX IMVI
COLO 205 = system: COLO 205
RPMI-8226 = system: RPMI-8226
HCT-116 = system: HCT-116
HCC 2998 = system: HCC 2998
NCI/ADR-RES = system: NCI/ADR-RES
MDA-MB-435 = system: MDA-MB-435
HOP-92 = system: HOP-92
KM12 = system: KM12
MOLT-4 = system: MOLT-4
DU-145 = system: DU-145
SNB-75 = system: SNB-75
SK-MEL-5 = system: SK-MEL-5
OVCAR-3 = system: OVCAR-3
A549 = system: A549
EKVX = system: EKVX
SK-MEL-28 = system: SK-MEL-28
A498 = system: A498
OVCAR-4 = system: OVCAR-4
MDA-N = system: MDA-N
UACC-257 = system: UACC-257
OVCAR-5 = system: OVCAR-5
NCI-H460 = system: NCI-H460

N#CC(NCc1cccc(CNC(C#N)c2ccccc2)c1)c1ccccc1 (configuration not stated)
GI50 (SF-268): 52.1 µM (inactive)
GI50 (SK-OV-3): > 100 µM (inactive)
GI50 (HL-60): 20.7 µM (inactive)
GI50 (T47D): 48.6 µM (inactive)
GI50 (SR): 25.8 µM (inactive)
GI50 (Hs-578T): 32.8 µM (inactive)
GI50 (CAKI-1): > 100 µM (inactive)
GI50 (SK-MEL-2): > 100 µM (inactive)
GI50 (IGROV-1): 18.1 µM (inactive)
GI50 (SF-295): 18.7 µM (inactive)
GI50 (786-0): 35.6 µM (inactive)
GI50 (MCF7): 19.3 µM (inactive)
GI50 (U-251): 31.1 µM (inactive)
GI50 (UACC-62): 65.2 µM (inactive)
GI50 (UO-31): 94.4 µM (inactive)
GI50 (K562): 17.1 µM (inactive)
GI50 (SW-620): 24.5 µM (inactive)
GI50 (ACHN): > 100 µM (inactive)
GI50 (NCI-H23): > 100 µM (inactive)
GI50 (NCI-H226): > 100 µM (inactive)
GI50 (SN12C): 77.8 µM (inactive)
GI50 (RXF 393): 60.4 µM (inactive)
GI50 (MDA-MB-231): 26.2 µM (inactive)
GI50 (Malme-3M): 26.9 µM (inactive)
GI50 (PC-3): 42.9 µM (inactive)
GI50 (CCRF-CEM): 18.1 µM (inactive)
GI50 (OVCAR-8): 67 µM (inactive)
GI50 (HT-29): 16.4 µM (inactive)
GI50 (BT-549): 24.7 µM (inactive)
GI50 (M14): 26.1 µM (inactive)
GI50 (HOP-62): > 100 µM (inactive)
GI50 (TK-10): 46.2 µM (inactive)
GI50 (SNB-19): 64.4 µM (inactive)
GI50 (NCI-H522): 40.3 µM (inactive)
GI50 (HCT-15): 25.8 µM
GI50 (SF-539): 0.0261 µM (active)
GI50 (LOX IMVI): 15 µM (inactive)
GI50 (COLO 205): 19.5 µM (inactive)
GI50 (RPMI-8226): 21.1 µM (inactive)
GI50 (HCT-116): 23.8 µM (inactive)
GI50 (HCC 2998): 14.9 µM (inactive)
GI50 (NCI/ADR-RES): > 100 µM (inactive)
GI50 (MDA-MB-435): 99.8 µM (inactive)
GI50 (HOP-92): 34.3 µM (inactive)
GI50 (KM12): 22.3 µM (inactive)
GI50 (MOLT-4): 16 µM (inactive)
GI50 (DU-145): > 100 µM (inactive)
GI50 (SNB-75): 28.9 µM (inactive)
GI50 (SK-MEL-5): 42.3 µM (inactive)
GI50 (OVCAR-3): > 100 µM (inactive)
GI50 (A549): 28.7 µM (inactive)
GI50 (EKVX): 60 µM (inactive)
GI50 (SK-MEL-28): 18.1 µM (inactive)
GI50 (A498): > 100 µM (inactive)
GI50 (OVCAR-4): 56 µM (inactive)
GI50 (MDA-N): 37.2 µM (inactive)
GI50 (UACC-257): 59.6 µM (inactive)
GI50 (OVCAR-5): > 100 µM (inactive)

CO/N=C1\CC(C)N2C(=O)C(C(C)C)NC(=O)C(NC(=O)c3c4nc5c(C(=O)NC6C(=O)NC(C(C)C)C(=O)N7C(C)CC(O)C7C(=O)N(C)CC(=O)N(C)C(C(C)C)C(=O)OC6C)ccc(C)c5oc-4c(C)c(=O)c3N)C(CO)OC(=O)C(C)N(C)C(=O)CN(C)C(=O)C12 (configuration not stated)
GI50 (SF-268): 0.986 µM (active)
GI50 (SK-OV-3): 3.66 µM (inactive)
GI50 (HL-60): 0.555 µM (active)
GI50 (T47D): 0.574 µM (active)
GI50 (SR): 0.0184 µM (active)
GI50 (Hs-578T): 0.906 µM (active)
GI50 (CAKI-1): 4.54 µM (inactive)
GI50 (SK-MEL-2): 0.308 µM (active)
GI50 (IGROV-1): 0.191 µM (active)
GI50 (SF-295): 1.13 µM (inactive)
GI50 (786-0): 1.01 µM (active)
GI50 (MCF7): 0.34 µM (active)
GI50 (U-251): 0.242 µM (active)
GI50 (UACC-62): 0.29 µM (active)
GI50 (UO-31): 2.23 µM (inactive)
GI50 (K562): 0.159 µM (active)
GI50 (SW-620): 0.346 µM (active)
GI50 (ACHN): 1.26 µM (inactive)
GI50 (NCI-H23): 1.43 µM (inactive)
GI50 (NCI-H226): 1.05 µM (active)
GI50 (SN12C): 0.416 µM (active)
GI50 (RXF 393): 0.865 µM (active)
GI50 (MDA-MB-231): 0.656 µM (active)
GI50 (Malme-3M): 0.374 µM (active)
GI50 (PC-3): 1.95 µM (inactive)
GI50 (CCRF-CEM): 0.0703 µM (active)
GI50 (OVCAR-8): 0.617 µM (active)
GI50 (HT-29): 0.526 µM (active)
GI50 (BT-549): 2.45 µM (inactive)
GI50 (M14): 2.26 µM (inactive)
GI50 (HOP-62): 1.57 µM (inactive)
GI50 (TK-10): 5.48 µM (inactive)
GI50 (SNB-19): 0.684 µM (active)
GI50 (NCI-H522): 0.249 µM (active)
GI50 (HCT-15): 7.01 µM
GI50 (SF-539): 0.348 µM (active)
GI50 (LOX IMVI): 0.156 µM (active)
GI50 (NCI-H460): 0.098 µM (active)
GI50 (COLO 205): 0.411 µM (active)
GI50 (RPMI-8226): 0.0984 µM (active)
GI50 (HCT-116): 0.321 µM (active)
GI50 (HCC 2998): 0.869 µM (active)
GI50 (NCI/ADR-RES): 16.6 µM (inactive)
GI50 (MDA-MB-435): 0.824 µM (active)
GI50 (HOP-92): 0.753 µM (active)
GI50 (KM12): 0.877 µM (active)
GI50 (MOLT-4): 0.222 µM (active)
GI50 (DU-145): 1.97 µM (inactive)
GI50 (SNB-75): 0.883 µM (active)
GI50 (SK-MEL-5): 0.174 µM (active)
GI50 (OVCAR-3): 1.42 µM (inactive)
GI50 (A549): 0.815 µM (active)
GI50 (EKVX): 4 µM (inactive)
GI50 (SK-MEL-28): 0.791 µM (active)
GI50 (A498): 1.13 µM (inactive)
GI50 (OVCAR-4): 5.82 µM (inactive)
GI50 (MDA-N): 0.773 µM (active)
GI50 (UACC-257): 0.65 µM (active)
GI50 (OVCAR-5): 6.92 µM (inactive)
